According to PubChem BioAssay (NCI):
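Interpolation was linear, between the two tested concentrations surrounding the appropriate level; five concentrations were tested over 48 hours in 96-well plates. TGI is the concentration that stops growth completely.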

What was measured:
Assay in all cases: NCI-60 cell line screen, 48 h
RPMI-8226 leukemia = test system: RPMI-8226 leukemia
OVCAR-4 ovarian = test system: OVCAR-4 ovarian
A498 renal = test system: A498 renal
U251 CNS = test system: U251 CNS
OVCAR-8 ovarian = test system: OVCAR-8 ovarian
COLO 205 colon = test system: COLO 205 colon
HOP-92 NSCLC = test system: HOP-92 NSCLC
786-0 renal = test system: 786-0 renal
NCI-H226 lung = test system: NCI-H226 lung
EKVX NSCLC = test system: EKVX NSCLC
SF-295 CNS = test system: SF-295 CNS
SK-MEL-2 melanoma = test system: SK-MEL-2 melanoma
HCT-15 colon = test system: HCT-15 colon
SNB-75 CNS = test system: SNB-75 CNS
MDA-MB-231 breast = test system: MDA-MB-231 breast
CCRF-CEM leukemia = test system: CCRF-CEM leukemia
TK-10 renal = test system: TK-10 renal
SNB-19 CNS = test system: SNB-19 CNS
HCC-2998 colon = test system: HCC-2998 colon
MDA-MB-435 = test system: MDA-MB-435
PC-3 prostate = test system: PC-3 prostate
NCI/ADR-RES ovarian = test system: NCI/ADR-RES ovarian
RXF 393 renal = test system: RXF 393 renal
MALME-3M melanoma = test system: MALME-3M melanoma
HT29 colon = test system: HT29 colon
OVCAR-3 ovarian = test system: OVCAR-3 ovarian
ACHN renal = test system: ACHN renal
SN12C renal = test system: SN12C renal
NCI-H23 lung = test system: NCI-H23 lung
MCF7 breast = test system: MCF7 breast
UACC-62 melanoma = test system: UACC-62 melanoma
T-47D breast = test system: T-47D breast
CAKI-1 renal = test system: CAKI-1 renal
OVCAR-5 ovarian = test system: OVCAR-5 ovarian
NCI-H522 lung = test system: NCI-H522 lung
IGROV1 ovarian = test system: IGROV1 ovarian
SK-MEL-5 melanoma = test system: SK-MEL-5 melanoma
HL-60(TB) leukemia = test system: HL-60(TB) leukemia
K-562 leukemia = test system: K-562 leukemia
MDA-N = test system: MDA-N
A549 NSCLC = test system: A549 NSCLC
M14 melanoma = test system: M14 melanoma
KM12 colon = test system: KM12 colon
SF-268 CNS = test system: SF-268 CNS
HCT-116 colon = test system: HCT-116 colon
SR leukemia = test system: SR leukemia
LOX IMVI melanoma = test system: LOX IMVI melanoma
NCI-H460 lung = test system: NCI-H460 lung
SF-539 CNS = test system: SF-539 CNS
HS 578T breast = test system: HS 578T breast
HOP-62 NSCLC = test system: HOP-62 NSCLC
SK-OV-3 ovarian = test system: SK-OV-3 ovarian
DU-145 prostate = test system: DU-145 prostate
SW-620 colon = test system: SW-620 colon
SK-MEL-28 melanoma = test system: SK-MEL-28 melanoma
UACC-257 melanoma = test system: UACC-257 melanoma
UO-31 renal = test system: UO-31 renal
MOLT-4 leukemia = test system: MOLT-4 leukemia

Measured: TGI

CC1(c2ccccc2)N=C(C(N)=O)c2[nH]cnc2N1 (centres undefined)
> 100 µM: RPMI-8226 leukemia | OVCAR-4 ovarian | A498 renal | U251 CNS | OVCAR-8 ovarian | COLO 205 colon | HOP-92 NSCLC | 786-0 renal | NCI-H226 lung | EKVX NSCLC | SF-295 CNS | SK-MEL-2 melanoma | HCT-15 colon | SNB-75 CNS | MDA-MB-231 breast | CCRF-CEM leukemia | TK-10 renal | SNB-19 CNS | HCC-2998 colon | MDA-MB-435 | PC-3 prostate | NCI/ADR-RES ovarian | RXF 393 renal | MALME-3M melanoma | HT29 colon | OVCAR-3 ovarian | ACHN renal | SN12C renal | NCI-H23 lung | MCF7 breast | UACC-62 melanoma | T-47D breast | CAKI-1 renal | OVCAR-5 ovarian | NCI-H522 lung | IGROV1 ovarian | SK-MEL-5 melanoma | HL-60(TB) leukemia | K-562 leukemia | MDA-N | A549 NSCLC | M14 melanoma | KM12 colon | SF-268 CNS | HCT-116 colon | SR leukemia | LOX IMVI melanoma | NCI-H460 lung | SF-539 CNS | HS 578T breast | HOP-62 NSCLC | SK-OV-3 ovarian | DU-145 prostate | SW-620 colon | SK-MEL-28 melanoma | UACC-257 melanoma

CCCCCCCCCc1c(Cl)nc(Cl)nc1Cl
26.3 µM: SW-620 colon
36.5 µM: MCF7 breast
32.1 µM: OVCAR-8 ovarian
39.3 µM: SF-295 CNS
37.7 µM: COLO 205 colon
30.8 µM: SNB-19 CNS
34.6 µM: SF-268 CNS | UACC-257 melanoma
29.4 µM: HOP-92 NSCLC
26.6 µM: IGROV1 ovarian
35.9 µM: OVCAR-5 ovarian
33 µM: U251 CNS
29.8 µM: PC-3 prostate
26.7 µM: MDA-MB-435
58.3 µM: HS 578T breast
5.18 µM: MOLT-4 leukemia
37.5 µM: RPMI-8226 leukemia | HOP-62 NSCLC
12.1 µM: CAKI-1 renal | NCI-H522 lung
29.6 µM: SNB-75 CNS
32.6 µM: SF-539 CNS
27.5 µM: HCT-15 colon
34 µM: A498 renal | HT29 colon
28.9 µM: OVCAR-4 ovarian
27.9 µM: HCT-116 colon
32.3 µM: RXF 393 renal
36.4 µM: SK-OV-3 ovarian
38.2 µM: EKVX NSCLC
26.8 µM: SN12C renal
37.4 µM: NCI-H460 lung
37.6 µM: A549 NSCLC
27 µM: T-47D breast
5.79 µM: CCRF-CEM leukemia
4.34 µM: LOX IMVI melanoma
8.89 µM: HCC-2998 colon
35.8 µM: NCI/ADR-RES ovarian
25.7 µM: NCI-H23 lung
25.6 µM: MALME-3M melanoma | SK-MEL-5 melanoma
20.1 µM: NCI-H226 lung
> 65 µM: KM12 colon
38.8 µM: UACC-62 melanoma
19.4 µM: K-562 leukemia
35.7 µM: SK-MEL-28 melanoma
33.7 µM: ACHN renal
11 µM: M14 melanoma
31.2 µM: DU-145 prostate
27.8 µM: 786-0 renal
18.2 µM: HL-60(TB) leukemia
32 µM: OVCAR-3 ovarian
37.8 µM: TK-10 renal
32.2 µM: UO-31 renal | MDA-N
25 µM: MDA-MB-231 breast
7.93 µM: SR leukemia

Cc1ccc(S(=O)(=O)NNC(=O)Nc2ccc(Cl)cc2)cc1
99.7 µM: SNB-75 CNS
> 100 µM: RPMI-8226 leukemia | OVCAR-4 ovarian | A498 renal | U251 CNS | OVCAR-8 ovarian | COLO 205 colon | HOP-92 NSCLC | 786-0 renal | NCI-H226 lung | EKVX NSCLC | SF-295 CNS | SK-MEL-2 melanoma | HCT-15 colon | MDA-MB-231 breast | CCRF-CEM leukemia | TK-10 renal | SNB-19 CNS | HCC-2998 colon | MDA-MB-435 | PC-3 prostate | NCI/ADR-RES ovarian | UO-31 renal | RXF 393 renal | MALME-3M melanoma | HT29 colon | ACHN renal | SN12C renal | NCI-H23 lung | MCF7 breast | UACC-62 melanoma | T-47D breast | CAKI-1 renal | OVCAR-5 ovarian | MOLT-4 leukemia | NCI-H522 lung | IGROV1 ovarian | SK-MEL-5 melanoma | HL-60(TB) leukemia | K-562 leukemia | MDA-N | A549 NSCLC | M14 melanoma | KM12 colon | SF-268 CNS | HCT-116 colon | SR leukemia | NCI-H460 lung | SF-539 CNS | HS 578T breast | HOP-62 NSCLC | SK-OV-3 ovarian | DU-145 prostate | SW-620 colon | SK-MEL-28 melanoma | UACC-257 melanoma
